Data on 4 compounds can be found in patent US3931199A, “Benzopyrano and benzothiopyrano [2,3-6] pyridines” (Yoshitomi Pharmaceutical Industries, Ltd., priority 1973, dated 1976).

The test system of this assay is Passive Cutaneous Anaphylaxis. In words: Passive Cutaneous Anaphylaxis Test. It is filed as in vivo, Donryu-strain male rats. Conditions: Rattus norvegicus, dose required for 50% inhibition, rats sensitized with reagin serum, egg albumin challenge after 48 hours. The protocol:
A test solution containing a test compound was administered orally 1 hour before, or intraperitoneally 30 minutes before challenge. The animals were killed 30 minutes after challenge, the skin reflected, and the responses measured and scored 0 for diameter of wheal less than 5 mm, 1 for 5-10 mm,[…] 3 for 15-20 mm and 4 for more than 20 mm. The percentage inhibition was calculated using the formula: [formula]

Setting [1] is: ip, 0.5 h, i.p., 30 minutes before challenge, read-out: ED50 i.p.
The mark [2] stands for this setting: po, 1 hour before challenge, read-out: ED50 p.o.

Where two headings read alike, the source gives them in different places.

For the compound `CC(=O)c1ccc2oc3ncccc3c(=O)c2c1` [A, 7-acetyl-5-oxo-5H-[1]benzopyrano[2,3-b]pyridine], the ED50 under setting [1] worked out at 1 mg/kg and the ED50 under setting [2] was 10 mg/kg.
On to `CC(C)C(=O)c1ccc2oc3ncccc3c(=O)c2c1` [B, 7isobutyryl-5-oxo-5H-[1]benzopyrano[2,3-b]pyridine], for which the ED50 runs as follows: under setting [1], 1 mg/kg; under setting [2], 25 to 50 mg/kg.
As to `O=C(O)c1ccc2oc3ncccc3c(=O)c2c1` [C, 5-oxo-5H-[1]benzopyrano[2,3-b]pyridine-7-carboxylic acid], the ED50 was found to be 2 mg/kg under setting [1] and 25 mg/kg under setting [2].
The corresponding values for `O=C([O-])c1ccc2oc3nc(-c4ccccc4)ccc3c(=O)c2c1.[Na+]` [D, sodium 2-phenyl-5-oxo-5H-[1]benzopyrano[2,3-b]pyridine-7-carboxylate] are 1 mg/kg and 40 mg/kg.
